Test results reported in ChEMBL document CHEMBL1143089, “Structure-based design and subsequent optimization of 2-tolyl-(1,2,3-triazol-1-yl-4-carboxamide) inhibitors of p38 MAP kinase” (Bioorg Med Chem Lett, 2008).
Converted amounts (≈) assume the structure as drawn. Blank lines part the entries; values can stand above or below the compound they belong to. The source made the active and inactive calls. The calls are words filed in the database; no cut-off is given here.

Key:
[1] = test system: Blood; experiment: Inhibition of LPS-stimulated TNFalpha production in human whole blood; type: functional, tissue-based
[2] = Binding affinity to mitogen-activated protein kinase p38 by thermal denaturation assay
[3] = test system: THP-1; experiment: Inhibition of LPS-stimulated TNFalpha production in human THP1 cells; type: functional, cell-based
[4] = molecular target: Vascular endothelial growth factor receptor 1 (Homo sapiens) (UniProt P17948); experiment: Activity at VEGFR1 at 10 uM
[5] = molecular target: 3-phosphoinositide-dependent protein kinase 1 (Homo sapiens) (UniProt O15530); experiment: Activity at PDK1 at 3 uM
[6] = molecular target: Tyrosine-protein kinase Lyn (Homo sapiens) (UniProt P07948); experiment: Activity at Lyn at 10 uM
[7] = molecular target: Hepatocyte growth factor receptor (Homo sapiens) (UniProt P08581); experiment: Activity at HGFR at 10 uM
[8] = molecular target: Insulin-like growth factor 1 receptor (Homo sapiens) (UniProt P08069); experiment: Activity at IGF1R at 10 uM
[9] = molecular target: MAP kinase-activated protein kinase 5 (Homo sapiens) (UniProt Q8IW41); experiment: Activity at PRAK at 3 uM
[10] = molecular target: Casein kinase I isoform alpha (Homo sapiens) (UniProt P48729); experiment: Activity at CK1 at 3 uM
[11] = molecular target: Serine/threonine-protein kinase Nek6 (Homo sapiens) (UniProt Q9HC98); experiment: Activity at NEK6 at 3 uM
[12] = molecular target: Tyrosine-protein kinase JAK3 (Homo sapiens) (UniProt P52333); experiment: Activity at JAK3 at 10 uM
[13] = molecular target: Protein kinase C alpha type (Homo sapiens) (UniProt P17252); experiment: Activity at PKCalpha at 3 uM
[14] = molecular target: Insulin receptor (Homo sapiens) (UniProt P06213); experiment: Activity at IR at 10 uM
[15] = molecular target: Rho-associated protein kinase 2 (Homo sapiens) (UniProt O75116); experiment: Activity at ROCK2 at 3 uM
[16] = molecular target: Mitogen-activated protein kinase 13 (Homo sapiens) (UniProt O15264); experiment: Activity at MAPK p38delta at 3 uM
[17] = molecular target: Casein kinase II subunit alpha (Homo sapiens) (UniProt P68400); experiment: Activity at CK2 at 3 uM
[18] = Solubility at pH 7.4; type: physicochemical; settings: buffer
[19] = Inhibition of JNK2a
[20] = molecular target: Ephrin type-A receptor 2 (Homo sapiens) (UniProt P29317); experiment: Activity at Eck at 10 uM
[21] = Activity at MKK1 at 3 uM
[22] = molecular target: Mitogen-activated protein kinase 8 (Homo sapiens) (UniProt P45983); experiment: Activity at JNK1 at 3 uM
[23] = Activity at PKA at 3 uM
[24] = Activity at PP2A at 3 uM
[25] = molecular target: Serine/threonine-protein kinase Sgk1 (Homo sapiens) (UniProt O00141); experiment: Activity at SGK at 3 uM
[26] = molecular target: Epidermal growth factor receptor (Homo sapiens) (UniProt P00533); experiment: Activity at EGFR at 10 uM
[27] = molecular target: Serine/threonine-protein kinase Chk1 (Homo sapiens) (UniProt O14757); experiment: Activity at CHK1 at 3 uM
[28] = molecular target: Mitogen-activated protein kinase 14 (Homo sapiens) (UniProt Q16539); experiment: Activity at MAPK p38-alpha at 3 uM
[29] = molecular target: Fibroblast growth factor receptor 3 (Homo sapiens) (UniProt P22607); experiment: Activity at FGFR3 at 10 uM
[30] = molecular target: Tyrosine-protein kinase ITK/TSK (Homo sapiens) (UniProt Q08881); experiment: Activity at Itk at 10 uM
[31] = molecular target: Glycogen synthase kinase-3 beta (Homo sapiens) (UniProt P49841); experiment: Activity at GSK3-beta at 3 uM
[32] = molecular target: Mitogen-activated protein kinase 1 (Homo sapiens) (UniProt P28482); experiment: Activity at ERK2 at 3 uM
[33] = molecular target: Ribosomal protein S6 kinase alpha-1 (Homo sapiens) (UniProt Q15418); experiment: Activity at MAPKAP-K1a at 3 uM
[34] = molecular target: Ribosomal protein S6 kinase alpha-5 (Homo sapiens) (UniProt O75582); experiment: Activity at MSK1 at 3 uM
[35] = molecular target: Ephrin type-A receptor 3 (Homo sapiens) (UniProt P29320); experiment: Activity at Hek at 10 uM; settings: HEK293
[36] = molecular target: Tyrosine-protein kinase SYK (Homo sapiens) (UniProt P43405); experiment: Activity at Syk at 10 uM
[37] = molecular target: Ribosomal protein S6 kinase beta-1 (Homo sapiens) (UniProt P23443); experiment: Activity at S6K1 at 3 uM
[38] = Activity at AMPK at 3 uM
[39] = molecular target: Cyclin-dependent kinase 2/cyclin A (Homo sapiens) (UniProt P24941+P20248+P78396); experiment: Activity at CDK2/cyclin A at 3 uM; type: protein-complex assay
[40] = molecular target: Dual specificity tyrosine-phosphorylation-regulated kinase 1A (Homo sapiens) (UniProt Q13627); experiment: Activity at DYRK1A at 3 uM
[41] = molecular target: Tyrosine-protein kinase BTK (Homo sapiens) (UniProt Q06187); experiment: Activity at Btk at 10 uM
[42] = Apparent permeability across human Caco-2 cells; type: ADME, cell-based
[43] = molecular target: MAP kinase-activated protein kinase 2 (Homo sapiens) (UniProt P49137); experiment: Activity at MAPKAP-K2 at 3 uM
[44] = Activity at PKBdeltaPH at 3 uM
[45] = species: Homo sapiens; experiment: Protein binding in human plasma; settings: read-out: PPB (converted)
[46] = molecular target: Tyrosine-protein kinase TXK (Homo sapiens) (UniProt P42681); experiment: Activity at TXK at 10 uM
[47] = Binding affinity to mitogen-activated protein kinase p38

Ribosomal protein S6 kinase alpha-1 (Homo sapiens), sequence (Q15418 whole entry): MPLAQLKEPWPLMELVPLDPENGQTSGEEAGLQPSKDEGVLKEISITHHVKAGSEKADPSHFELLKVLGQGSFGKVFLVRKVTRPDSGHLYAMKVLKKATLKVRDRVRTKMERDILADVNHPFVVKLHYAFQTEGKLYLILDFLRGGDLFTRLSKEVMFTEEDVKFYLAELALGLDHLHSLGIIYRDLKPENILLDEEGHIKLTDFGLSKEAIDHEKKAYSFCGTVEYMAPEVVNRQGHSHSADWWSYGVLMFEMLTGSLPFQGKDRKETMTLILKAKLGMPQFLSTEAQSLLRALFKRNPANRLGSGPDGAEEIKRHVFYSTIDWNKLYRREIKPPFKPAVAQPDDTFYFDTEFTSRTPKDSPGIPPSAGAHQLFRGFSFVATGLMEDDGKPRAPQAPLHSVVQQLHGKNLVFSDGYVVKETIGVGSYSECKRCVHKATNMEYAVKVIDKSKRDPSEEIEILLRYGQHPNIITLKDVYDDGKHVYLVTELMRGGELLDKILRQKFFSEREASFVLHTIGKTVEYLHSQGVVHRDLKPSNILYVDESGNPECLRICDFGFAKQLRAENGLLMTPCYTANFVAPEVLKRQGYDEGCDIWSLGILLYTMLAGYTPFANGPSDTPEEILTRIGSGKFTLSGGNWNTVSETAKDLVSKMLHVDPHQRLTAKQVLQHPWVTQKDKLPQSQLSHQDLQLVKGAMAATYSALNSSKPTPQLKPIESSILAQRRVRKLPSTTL
Vascular endothelial growth factor receptor 1 (Homo sapiens), sequence (P17948 whole entry): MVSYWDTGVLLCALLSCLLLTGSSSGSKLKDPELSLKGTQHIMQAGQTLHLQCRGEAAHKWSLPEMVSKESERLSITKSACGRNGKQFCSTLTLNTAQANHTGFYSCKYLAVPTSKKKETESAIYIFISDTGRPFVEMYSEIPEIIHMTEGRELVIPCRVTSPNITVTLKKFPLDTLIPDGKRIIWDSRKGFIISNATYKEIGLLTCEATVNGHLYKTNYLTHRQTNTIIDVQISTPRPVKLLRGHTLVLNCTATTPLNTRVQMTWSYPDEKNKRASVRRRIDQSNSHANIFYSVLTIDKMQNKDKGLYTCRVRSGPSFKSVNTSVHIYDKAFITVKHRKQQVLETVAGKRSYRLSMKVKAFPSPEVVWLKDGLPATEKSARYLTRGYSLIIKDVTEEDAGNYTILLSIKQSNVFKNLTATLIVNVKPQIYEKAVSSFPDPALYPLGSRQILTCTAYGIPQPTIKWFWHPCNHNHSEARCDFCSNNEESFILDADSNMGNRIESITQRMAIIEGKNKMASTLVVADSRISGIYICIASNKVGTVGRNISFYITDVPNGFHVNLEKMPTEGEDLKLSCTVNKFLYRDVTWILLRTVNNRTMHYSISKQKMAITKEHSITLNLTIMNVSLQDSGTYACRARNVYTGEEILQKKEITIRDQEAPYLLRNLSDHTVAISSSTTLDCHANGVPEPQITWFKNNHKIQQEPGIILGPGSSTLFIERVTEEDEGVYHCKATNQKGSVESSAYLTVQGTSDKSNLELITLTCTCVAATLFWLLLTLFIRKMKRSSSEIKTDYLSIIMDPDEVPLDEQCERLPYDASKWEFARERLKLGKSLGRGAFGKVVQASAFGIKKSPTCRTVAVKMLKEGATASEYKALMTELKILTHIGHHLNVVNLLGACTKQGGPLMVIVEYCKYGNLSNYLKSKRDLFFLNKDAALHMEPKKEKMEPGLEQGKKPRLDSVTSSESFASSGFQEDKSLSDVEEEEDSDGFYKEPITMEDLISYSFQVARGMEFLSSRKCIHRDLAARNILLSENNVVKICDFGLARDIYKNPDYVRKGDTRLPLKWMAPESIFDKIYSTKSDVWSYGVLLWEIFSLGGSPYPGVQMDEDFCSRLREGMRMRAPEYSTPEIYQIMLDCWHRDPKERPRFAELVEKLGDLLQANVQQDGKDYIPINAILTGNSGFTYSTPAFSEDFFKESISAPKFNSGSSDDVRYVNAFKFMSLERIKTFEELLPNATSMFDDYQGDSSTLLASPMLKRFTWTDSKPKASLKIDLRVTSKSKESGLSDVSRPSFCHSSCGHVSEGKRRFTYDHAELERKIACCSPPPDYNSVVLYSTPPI
Mitogen-activated protein kinase 8 (Homo sapiens), sequence (P45983 whole entry): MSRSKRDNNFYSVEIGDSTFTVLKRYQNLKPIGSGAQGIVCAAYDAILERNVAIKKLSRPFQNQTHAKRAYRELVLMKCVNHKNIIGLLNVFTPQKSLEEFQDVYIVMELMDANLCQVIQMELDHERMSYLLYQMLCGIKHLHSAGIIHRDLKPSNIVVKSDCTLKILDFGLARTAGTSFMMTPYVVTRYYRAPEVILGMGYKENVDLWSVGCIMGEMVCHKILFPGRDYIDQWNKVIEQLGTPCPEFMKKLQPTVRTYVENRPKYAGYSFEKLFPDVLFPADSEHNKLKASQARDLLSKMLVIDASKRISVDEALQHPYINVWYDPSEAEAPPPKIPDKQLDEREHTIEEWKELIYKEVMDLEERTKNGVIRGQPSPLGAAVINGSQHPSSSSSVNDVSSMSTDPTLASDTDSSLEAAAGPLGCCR
Hepatocyte growth factor receptor (Homo sapiens), sequence (P08581 whole entry): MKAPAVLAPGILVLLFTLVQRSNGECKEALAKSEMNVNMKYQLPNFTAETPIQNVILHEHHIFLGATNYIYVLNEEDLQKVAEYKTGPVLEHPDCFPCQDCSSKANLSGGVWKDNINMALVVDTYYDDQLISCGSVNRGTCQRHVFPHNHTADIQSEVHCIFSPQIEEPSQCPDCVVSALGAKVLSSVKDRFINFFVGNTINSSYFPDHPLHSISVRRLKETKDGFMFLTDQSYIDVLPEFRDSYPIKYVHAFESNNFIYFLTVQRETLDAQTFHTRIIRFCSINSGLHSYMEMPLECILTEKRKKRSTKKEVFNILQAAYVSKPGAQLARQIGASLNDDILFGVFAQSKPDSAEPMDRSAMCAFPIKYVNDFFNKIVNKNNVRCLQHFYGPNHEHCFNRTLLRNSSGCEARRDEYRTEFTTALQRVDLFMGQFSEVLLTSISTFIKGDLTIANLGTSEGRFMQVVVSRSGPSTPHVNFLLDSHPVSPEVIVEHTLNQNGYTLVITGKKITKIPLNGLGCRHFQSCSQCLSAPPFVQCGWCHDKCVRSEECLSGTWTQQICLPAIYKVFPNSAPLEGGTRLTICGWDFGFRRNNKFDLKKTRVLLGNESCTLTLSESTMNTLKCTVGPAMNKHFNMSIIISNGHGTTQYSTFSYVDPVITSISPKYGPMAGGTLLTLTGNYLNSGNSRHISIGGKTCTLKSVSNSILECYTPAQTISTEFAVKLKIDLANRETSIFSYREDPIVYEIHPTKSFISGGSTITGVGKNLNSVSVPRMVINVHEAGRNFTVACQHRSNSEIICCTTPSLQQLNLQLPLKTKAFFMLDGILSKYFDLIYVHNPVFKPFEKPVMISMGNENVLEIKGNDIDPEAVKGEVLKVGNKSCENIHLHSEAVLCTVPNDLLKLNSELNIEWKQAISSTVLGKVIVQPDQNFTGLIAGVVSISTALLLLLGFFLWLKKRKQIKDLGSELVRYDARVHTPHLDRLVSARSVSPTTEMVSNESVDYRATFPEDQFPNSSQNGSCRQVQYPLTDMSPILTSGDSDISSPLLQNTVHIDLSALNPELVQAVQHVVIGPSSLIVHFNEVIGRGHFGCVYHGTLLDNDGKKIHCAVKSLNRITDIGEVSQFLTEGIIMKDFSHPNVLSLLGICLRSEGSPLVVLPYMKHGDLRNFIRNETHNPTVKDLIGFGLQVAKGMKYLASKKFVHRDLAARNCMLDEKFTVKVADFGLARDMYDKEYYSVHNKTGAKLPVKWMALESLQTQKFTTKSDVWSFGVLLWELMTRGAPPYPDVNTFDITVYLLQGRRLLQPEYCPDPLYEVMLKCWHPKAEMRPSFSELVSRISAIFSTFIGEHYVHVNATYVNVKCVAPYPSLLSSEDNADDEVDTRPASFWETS
Tyrosine-protein kinase ITK/TSK (Homo sapiens), sequence (Q08881 whole entry): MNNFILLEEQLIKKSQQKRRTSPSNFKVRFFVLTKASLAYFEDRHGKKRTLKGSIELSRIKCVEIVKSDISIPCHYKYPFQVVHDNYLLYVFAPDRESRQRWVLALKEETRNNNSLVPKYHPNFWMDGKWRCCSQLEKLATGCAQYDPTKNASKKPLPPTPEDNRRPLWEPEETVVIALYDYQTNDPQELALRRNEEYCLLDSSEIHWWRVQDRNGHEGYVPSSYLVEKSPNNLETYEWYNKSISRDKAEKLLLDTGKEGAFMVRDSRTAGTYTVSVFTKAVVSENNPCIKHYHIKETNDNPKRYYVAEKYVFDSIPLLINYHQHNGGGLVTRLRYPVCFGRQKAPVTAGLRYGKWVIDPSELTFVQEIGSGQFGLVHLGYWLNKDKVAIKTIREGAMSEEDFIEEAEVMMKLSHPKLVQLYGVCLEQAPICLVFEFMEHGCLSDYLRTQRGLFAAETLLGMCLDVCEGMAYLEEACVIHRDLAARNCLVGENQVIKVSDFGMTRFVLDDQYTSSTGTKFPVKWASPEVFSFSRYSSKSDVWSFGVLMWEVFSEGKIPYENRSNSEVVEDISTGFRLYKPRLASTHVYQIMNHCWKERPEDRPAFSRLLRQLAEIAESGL
Glycogen synthase kinase-3 beta (Homo sapiens), sequence (P49841 whole entry, looked up): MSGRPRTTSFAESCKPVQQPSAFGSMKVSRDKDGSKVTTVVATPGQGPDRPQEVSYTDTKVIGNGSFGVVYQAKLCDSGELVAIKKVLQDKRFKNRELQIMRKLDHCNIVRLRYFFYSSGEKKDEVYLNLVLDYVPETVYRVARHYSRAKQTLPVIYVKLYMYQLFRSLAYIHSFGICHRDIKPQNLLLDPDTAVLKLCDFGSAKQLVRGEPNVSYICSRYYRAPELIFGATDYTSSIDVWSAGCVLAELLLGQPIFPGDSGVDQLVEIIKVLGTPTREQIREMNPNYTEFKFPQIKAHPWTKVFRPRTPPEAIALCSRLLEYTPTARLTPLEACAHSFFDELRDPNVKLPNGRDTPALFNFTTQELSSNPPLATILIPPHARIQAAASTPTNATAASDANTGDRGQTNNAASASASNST

SMILES: COc1c(NC(=O)c2ccc(C)c(N3C=C(C(=O)N[C@H](C)C4CCCCC4)NN3)c2)cc(C(C)(C)C)cc1NS(C)(=O)=O
IC50 [1]: 2800 nM
Tm [2]: 60.8 °C
IC50 [3]: 16 nM

SMILES: COc1c(NC(=O)c2ccc(C)c(N3C=C(C(=O)N[C@@H](C)C4CCCCC4)NN3)c2)cc(C(C)(C)C)cc1NS(C)(=O)=O
IC50 [1]: 5600 nM
Tm [2]: 56.9 °C
IC50 [3]: 66 nM

SMILES: CNC(=O)C1=CN(c2cc(C(=O)Nc3cc(C(C)(C)C)cc(NS(C)(=O)=O)c3OC)ccc2C)NN1
IC50 [1]: 8400 nM
Tm [2]: 57.3 °C
IC50 [3]: 110 nM

SMILES: COc1c(NC(=O)c2ccc(C)c(N3C=C(C(=O)NC(C)(C)C)NN3)c2)cc(C(C)(C)C)cc1NS(C)(=O)=O
IC50 [1]: > 15000 nM
Tm [2]: 56.8 °C
IC50 [3]: 84 nM

SMILES: Cc1ccc(-n2nc(C(C)(C)C)cc2NC(=O)Nc2ccc(OCCN3CCOCC3)c3ccccc23)cc1 [DORAMAPIMOD]
solubility [18]: 1 µg/mL (≈ 1.9 µM)
IC50 [19]: 6 nM
Tm [2]: 63.5 °C
Papp [42]: 10 ×10⁻⁶ cm/s

SMILES: COc1c(NC(=O)c2ccc(C)c(N3C=C(C(=O)NCC4CCN(C)CC4)NN3)c2)cc(C(C)(C)C)cc1NS(C)(=O)=O
IC50 [1]: 4500 nM
Tm [2]: 57.5 °C
IC50 [3]: 200 nM

SMILES: COc1c(NC(=O)c2ccc(C)c(N3C=C(C(=O)N[C@@H](C)C(C)(C)C)NN3)c2)cc(C(C)(C)C)cc1NS(C)(=O)=O
IC50 [1]: 2600 nM
Tm [2]: 60 °C
IC50 [3]: 35 nM

SMILES: COc1c(NC(=O)c2ccc(C)c(N3C=C(C(=O)NC4CC4)NN3)c2)cc(C(C)(C)C)cc1NS(C)(=O)=O
IC50 [1]: 2800 nM
Tm [2]: 56.6 °C
IC50 [3]: 110 nM

SMILES: COc1c(NC(=O)c2ccc(C)c(N3C=C(C(=O)N[C@@H](C)c4ccccc4)NN3)c2)cc(C(C)(C)C)cc1NS(C)(=O)=O
IC50 [1]: 2600 nM
Tm [2]: 60.1 °C
IC50 [3]: 27 nM

SMILES: CCOC(=O)C1=CN(c2cc(C(=O)Nc3cc(C(C)(C)C)cc(NS(C)(=O)=O)c3OC)ccc2C)NN1
IC50 [1]: 9000 nM
Kd [47]: 8 nM
Tm [2]: 56.2 °C
IC50 [3]: > 5000 nM

SMILES: COc1c(NC(=O)c2ccc(C)c(N3C=C(C(=O)N(C)Cc4ccccc4)NN3)c2)cc(C(C)(C)C)cc1NS(C)(=O)=O
IC50 [1]: > 15000 nM
Tm [2]: 57.8 °C
IC50 [3]: 29 nM

SMILES: COc1c(NC(=O)c2ccc(C)c(N3C=C(C(=O)N[C@H](C)C(C)(C)C)NN3)c2)cc(C(C)(C)C)cc1NS(C)(=O)=O
IC50 [1]: 1000 nM
Tm [2]: 61.6 °C
IC50 [3]: 14 nM

Second part, the compound after the results:

Activity [4]: inactive
Activity [5]: inactive
Activity [6]: inactive
Activity [7]: inactive
Activity [8]: inactive
Activity [9]: inactive
Activity [10]: inactive
Activity [11]: inactive
Activity [12]: inactive
Activity [13]: inactive
Activity [14]: inactive
Activity [15]: inactive
Activity [16]: inactive
Activity [17]: inactive
solubility [18]: 13.9 µg/mL (≈ 22.6 µM)
IC50 [19]: 1100 nM
Activity [20]: inactive
Activity [21]: inactive
Activity [22]: inactive
Activity [23]: inactive
IC50 [1]: 83 nM
Activity [24]: inactive
Activity [25]: inactive
Activity [26]: inactive
Activity [27]: inactive
Activity [28]: inactive
Activity [29]: inactive
Activity [30]: inactive
Activity [31]: inactive
Activity [32]: inactive
Activity [33]: inactive
Activity [34]: inactive
Tm [2]: 57.3 °C
IC50 [3]: 22 nM
Activity [35]: inactive
Activity [36]: inactive
Activity [37]: inactive
Activity [38]: inactive
Activity [39]: inactive
Activity [40]: inactive
Activity [41]: inactive
Papp [42]: 13 ×10⁻⁶ cm/s
Activity [43]: inactive
Activity [44]: inactive
fraction unbound [45]: 0.34
Activity [46]: inactive
SMILES: COc1c(NC(=O)c2ccc(C)c(N3C=C(C(=O)NCC(C)(C)CN(C)C)NN3)c2)cc(C(C)(C)C)cc1NS(C)(=O)=O

IC50 [1]: 720 nM
Tm [2]: 58.8 °C
IC50 [3]: 74 nM
SMILES: COc1c(NC(=O)c2ccc(C)c(N3C=C(C(=O)NCc4ccncc4)NN3)c2)cc(C(C)(C)C)cc1NS(C)(=O)=O

solubility [18]: 0.1 µg/mL (≈ 0.175 µM)
IC50 [1]: 260 nM
Tm [2]: 60.5 °C
IC50 [3]: 14 nM
fraction unbound [45]: 0.08
SMILES: COc1c(NC(=O)c2ccc(C)c(N3C=C(C(=O)NCC(C)(C)C)NN3)c2)cc(C(C)(C)C)cc1NS(C)(=O)=O

IC50 [1]: 300 nM
Tm [2]: 57.4 °C
IC50 [3]: 28 nM
SMILES: COc1c(NC(=O)c2ccc(C)c(N3C=C(C(=O)NCC4CCCN(C)C4)NN3)c2)cc(C(C)(C)C)cc1NS(C)(=O)=O (centres undefined)

IC50 [1]: 270 nM
Tm [2]: 57.9 °C
IC50 [3]: 38 nM
SMILES: COc1c(NC(=O)c2ccc(C)c(N3C=C(C(=O)NCc4cccnc4)NN3)c2)cc(C(C)(C)C)cc1NS(C)(=O)=O

IC50 [1]: 470 nM
Tm [2]: 64.6 °C
IC50 [3]: 13 nM
SMILES: COc1c(NC(=O)c2ccc(C)c(N3C=C(C(=O)N[C@H](C)c4ccccc4)NN3)c2)cc(C(C)(C)C)cc1NS(C)(=O)=O

IC50 [1]: 790 nM
Tm [2]: 56.1 °C
IC50 [3]: 140 nM
SMILES: COc1c(NC(=O)c2ccc(C)c(N3C=C(C(=O)NCC(C)(C)N(C)C)NN3)c2)cc(C(C)(C)C)cc1NS(C)(=O)=O

IC50 [1]: 500 nM
Tm [2]: 65.1 °C
IC50 [3]: 35 nM
SMILES: COc1c(NC(=O)c2ccc(C)c(N3C=C(C(=O)N[C@H](CN(C)C)c4ccccc4)NN3)c2)cc(C(C)(C)C)cc1NS(C)(=O)=O

solubility [18]: 2 µg/mL (≈ 3.48 µM)
IC50 [1]: 210 nM
Tm [2]: 59.9 °C
IC50 [3]: 18 nM
Papp [42]: 7.4 ×10⁻⁶ cm/s
fraction unbound [45]: 0.34
SMILES: COc1c(NC(=O)c2ccc(C)c(N3C=C(C(=O)NCC(C)(C)O)NN3)c2)cc(C(C)(C)C)cc1NS(C)(=O)=O

IC50 [1]: 930 nM
Tm [2]: 59.7 °C
IC50 [3]: 40 nM
SMILES: COc1c(NC(=O)c2ccc(C)c(N3C=C(C(=O)NCc4ccccc4)NN3)c2)cc(C(C)(C)C)cc1NS(C)(=O)=O

IC50 [1]: 260 nM
Tm [2]: 56.2 °C
IC50 [3]: 14 nM
SMILES: COc1c(NC(=O)c2ccc(C)c(N3C=C(C(=O)NCC4CCCCC4)NN3)c2)cc(C(C)(C)C)cc1NS(C)(=O)=O
